From patent US9771369B2, “Compounds and methods for kinase modulation, and indications therefor” (Plexxikon Inc., priority 2014, dated 2017) come the findings set out here.

The test deals with c-kit mutant D816V (Homo sapiens (Human), UniProt P10721, D816V/DEL694-753). Kind of test: c-Kit mutant D816V biochemical assay (AlphaScreen kinase activity). Summed up:
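Recombinant His-tagged c-Kit D816V kinase domain (residues 551-934, insert 694-753 deleted, E. coli-expressed) phosphorylating 30 nM biotin-(E4Y)10 with 10 μM ATP, HEPES pH 7.2, Mg/Mn, 5% DMSO; 30 min, room temperature. Phosphorylation detected by AlphaScreen (streptavidin donor/PY30 acceptor beads); IC50 from 8-point 1:3 series.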
In general terms: Alpha assays give light when donor and acceptor beads are brought close together.

Molecules are shown by their SMILES.

Chain of c-kit mutant D816V (P10721 other isoform, or with tags, fused parts or gaps D816V/del 694-753): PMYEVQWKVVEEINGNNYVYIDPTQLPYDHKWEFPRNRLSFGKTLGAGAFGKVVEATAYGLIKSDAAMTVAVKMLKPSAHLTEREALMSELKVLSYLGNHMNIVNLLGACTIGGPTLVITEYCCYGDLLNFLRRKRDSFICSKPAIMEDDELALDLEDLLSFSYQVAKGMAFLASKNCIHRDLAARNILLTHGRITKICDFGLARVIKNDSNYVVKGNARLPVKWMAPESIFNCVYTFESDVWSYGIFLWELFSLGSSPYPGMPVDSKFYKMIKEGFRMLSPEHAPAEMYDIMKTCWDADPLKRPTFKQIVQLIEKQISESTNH

Broadly, the IC50 is the concentration needed to halve the response being measured. The low end stands for higher potency, the high end for lower potency. `Cc1nc(C2(C)CCN(c3ncnc4[nH]c(-c5ccc(C#N)cc5)cc34)CC2)[nH]c1-c1ccc(OC(F)F)cc1` [P-3195, 4-[4-[4-[5-[4-(difluoromethoxy)phenyl]-4-methyl-1H-imidazol-2-yl]-4-methyl-1-piperidyl]-7H-pyrrolo[2,3-d]pyrimidin-6-yl]benzonitrile]: the IC50 was 0.0001 to 1 µM.

Compound `Cc1cc2c(N3CCC(C)(c4nc(C)c(-c5ccc(OC(F)F)cc5)[nH]4)CC3)ncnc2[nH]1` [P-3196, 4-[4-[5-[4-(difluoromethoxy)phenyl]-4-methyl-1H-imidazol-2-yl]-4-methyl-1-piperidyl]-6-methyl-7H-pyrrolo[2,3-d]pyrimidine] had an IC50 of 0.0001 to 1 µM.

Turning to `CCc1[nH]c(C2CCN(c3ncnc4[nH]c(-c5cnn(C(F)F)c5)cc34)CC2)nc1C` [P-3197, 6-[1-(difluoromethyl)pyrazol-4-yl]-4-[4-(5-ethyl-4-methyl-1H-imidazol-2-yl)-1-piperidyl]-7H-pyrrolo[2,3-d]pyrimidine], the IC50 lay in the range of 0.0001 to 1 µM.

Compound `CCc1[nH]c(C2CCN(c3ncnc4[nH]c(-c5ccc(C#N)cc5)cc34)CC2)nc1C` [P-3198, 4-[4-[4-(5-ethyl-4-methyl-1H-imidazol-2-yl)-1-piperidyl]-7H-pyrrolo[2,3-d]pyrimidin-6-yl]benzonitrile] displayed an IC50 of 0.0001 to 1 µM.

Compound `COc1ccc(-c2[nH]c(C3(C)CCN(c4ncnc5[nH]c(-c6ccc(C(=O)O)cc6)cc45)CC3)nc2C)cc1F` [P-3199, 4-[4-[4-[5-(3-fluoro-4-methoxy-phenyl)-4-methyl-1H-imidazol-2-yl]-4-methyl-1-piperidyl]-7H-pyrrolo[2,3-d]pyrimidin-6-yl]benzoic acid] displayed an IC50 of 0.0001 to 1 µM.

Compound `Cc1nc(C2(C)CCN(c3ncnc4[nH]nc(C)c34)CC2)[nH]c1-c1ccc(Cl)cc1` [P-3200, 4-[4-[5-(4-chlorophenyl)-4-methyl-1H-imidazol-2-yl]-4-methyl-1-piperidyl]-3-methyl-1H-pyrazolo[3,4-d]pyrimidine] gave an IC50 of 0.0001 to 1 µM.

On to `Cc1nc(C2(C)CCN(c3ncnc4[nH]nc(C)c34)CC2)[nH]c1-c1cccc(OC(F)F)c1` [P-3201, 4-[4-[5-[3-(difluoromethoxy)phenyl]-4-methyl-1H-imidazol-2-yl]-4-methyl-1-piperidyl]-3-methyl-1H-pyrazolo[3,4-d]pyrimidine], for which the IC50 is 0.0001 to 1 µM.

In turn, `COc1ccc(-c2[nH]c(C3(C)CCN(c4ncnc5[nH]nc(C)c45)CC3)nc2C)cc1F` [P-3202, 4-[4-[5-(3-fluoro-4-methoxy-phenyl)-4-methyl-1H-imidazol-2-yl]-4-methyl-1-piperidyl]-3-methyl-1H-pyrazolo[3,4-d]pyrimidine] had an IC50 of 0.0001 to 1 µM.

In the case of `Cc1nc(C2(C)CCN(c3ncnc4[nH]nc(C)c34)CC2)[nH]c1-c1ccc2c(c1)OC(F)(F)O2` [P-3203, 4-[4-[5-(2,2-difluoro-1,3-benzodioxol-5-yl)-4-methyl-1H-imidazol-2-yl]-4-methyl-1-piperidyl]-3-methyl-1H-pyrazolo[3,4-d]pyrimidine], the IC50 was in the range of 0.0001 to 1 µM.

Compound `Fc1ccc(-c2cc3c(N4CCC(c5nnc(-c6ccc(F)cc6)[nH]5)CC4)ncnc3[nH]2)cc1` [P-3206, 6-(4-fluorophenyl)-4-[4-[5-(4-fluorophenyl)-4H-1,2,4-triazol-3-yl]-1-piperidyl]-7H-pyrrolo[2,3-d]pyrimidine] showed a half-maximal inhibitory concentration (IC50) of 0.0001 to 1 µM.

The compound `COc1cc(-c2cc3c(N4CCC(c5nnc(-c6cccc(OC(F)F)c6)[nH]5)CC4)ncnc3[nH]2)ccn1` [P-3207, 4-[4-[5-[3-(difluoromethoxy)phenyl]-4H-1,2,4-triazol-3-yl]-1-piperidyl]-6-(2-methoxy-4-pyridyl)-7H-pyrrolo[2,3-d]pyrimidine] displayed an IC50 of 1 to 10 µM.

Turning to `CCOc1ccc(-c2[nH]c(C3(C)CCN(c4ncnc5[nH]c(-c6ccc(OC)nc6)cc45)CC3)nc2C)cc1F` [P-3209, 4-[4-[5-(4-ethoxy-3-fluoro-phenyl)-4-methyl-1H-imidazol-2-yl]-4-methyl-1-piperidyl]-6-(6-methoxy-3-pyridyl)-7H-pyrrolo[2,3-d]pyrimidine], the IC50 was 0.0001 to 1 µM.

Turning to `CCOc1ccc(-c2[nH]c(C3(C)CCN(c4ncnc5[nH]c(-c6cnn(C(F)F)c6)cc45)CC3)nc2C)cc1F` [P-3210, 6-[1-(difluoromethyl)pyrazol-4-yl]-4-[4-[5-(4-ethoxy-3-fluoro-phenyl)-4-methyl-1H-imidazol-2-yl]-4-methyl-1-piperidyl]-7H-pyrrolo[2,3-d]pyrimidine], the IC50 fell in the range of 0.0001 to 1 µM.

The compound `COc1ccc(-c2[nH]c(C3(C)CCN(c4ncnc5[nH]c(-c6ccc(C#N)nc6)cc45)CC3)nc2C)cc1F` [P-3211, 5-[4-[4-[5-(3-fluoro-4-methoxy-phenyl)-4-methyl-1H-imidazol-2-yl]-4-methyl-1-piperidyl]-7H-pyrrolo[2,3-d]pyrimidin-6-yl]pyridine-2-carbonitrile] yielded an IC50 of 0.0001 to 1 µM.

Turning to `COc1ccc(-c2[nH]c(C3(C)CCN(c4ncnc5[nH]c(-c6ccc(C(N)=O)cc6)cc45)CC3)nc2C)cc1F` [P-3212, 4-[4-[4-[5-(3-fluoro-4-methoxy-phenyl)-4-methyl-1H-imidazol-2-yl]-4-methyl-1-piperidyl]-7H-pyrrolo[2,3-d]pyrimidin-6-yl]benzamide], the IC50 lay within 0.0001 to 1 µM.

`COc1ccc(-c2[nH]c(C3(C)CCN(c4ncnc5[nH]c(-c6ccc(NS(C)(=O)=O)cc6)cc45)CC3)nc2C)cc1F` [P-3213, N-[4-[4-[4-[5-(3-fluoro-4-methoxy-phenyl)-4-methyl-1H-imidazol-2-yl]-4-methyl-1-piperidyl]-7H-pyrrolo[2,3-d]pyrimidin-6-yl]phenyl]methanesulfonamide] yielded an IC50 of 0.0001 to 1 µM.

The compound `COc1ccc(-c2[nH]c(C3(C)CCN(c4ncnc5[nH]c(-c6ccc(OCC(=O)O)cc6)cc45)CC3)nc2C)cc1F` [P-3214, 2-[4-[4-[4-[5-(3-fluoro-4-methoxy-phenyl)-4-methyl-1H-imidazol-2-yl]-4-methyl-1-piperidyl]-7H-pyrrolo[2,3-d]pyrimidin-6-yl]phenoxy]acetic acid] registered an IC50 of 0.0001 to 1 µM.

With `COc1ccc(-c2[nH]c(C3(C)CCN(c4ncnc5[nH]c(-c6ccc(N7CCOCC7)nc6)cc45)CC3)nc2C)cc1F` [P-3215, 4-[5-[4-[4-[5-(3-fluoro-4-methoxy-phenyl)-4-methyl-1H-imidazol-2-yl]-4-methyl-1-piperidyl]-7H-pyrrolo[2,3-d]pyrimidin-6-yl]-2-pyridyl]morpholine], the IC50 lay in the range of 0.0001 to 1 µM.

In turn, `COc1ccc(-c2[nH]c(C3(C)CCN(c4ncnc5[nH]c(-c6ccc(C(N)=O)cc6)cc45)CC3)nc2C)cc1C` [P-3216, 4-[4-[4-[5-(4-methoxy-3-methyl-phenyl)-4-methyl-1H-imidazol-2-yl]-4-methyl-1-piperidyl]-7H-pyrrolo[2,3-d]pyrimidin-6-yl]benzamide] yielded an IC50 of 0.0001 to 1 µM.

Compound `COc1ccc(-c2[nH]c(C3(C)CCN(c4ncnc5[nH]c(-c6ccc(OCC(=O)O)cc6)cc45)CC3)nc2C)cc1C` [P-3217, 2-[4-[4-[4-[5-(4-methoxy-3-methyl-phenyl)-4-methyl-1H-imidazol-2-yl]-4-methyl-1-piperidyl]-7H-pyrrolo[2,3-d]pyrimidin-6-yl]phenoxy]acetic acid] had an IC50 of 0.0001 to 1 µM.

The compound `CNC(=O)c1ccc(-c2cc3c(N4CCC(C)(c5nc(C)c(-c6ccc(OC)c(C)c6)[nH]5)CC4)ncnc3[nH]2)cn1` [P-3218, 5-[4-[4-[5-(4-methoxy-3-methyl-phenyl)-4-methyl-1H-imidazol-2-yl]-4-methyl-1-piperidyl]-7H-pyrrolo[2,3-d]pyrimidin-6-yl]-N-methyl-pyridine-2-carboxamide] came in with an IC50 of 0.0001 to 1 µM.

For the compound `COc1ccc(-c2[nH]c(C3(C)CCN(c4ncnc5[nH]c(-c6ccc(N7CCOCC7)nc6)cc45)CC3)nc2C)cc1C` [P-3219, 4-[5-[4-[4-[5-(4-methoxy-3-methyl-phenyl)-4-methyl-1H-imidazol-2-yl]-4-methyl-1-piperidyl]-7H-pyrrolo[2,3-d]pyrimidin-6-yl]-2-pyridyl]morpholine], the IC50 was in the range of 0.0001 to 1 µM.

On to `CNC(=O)c1ccc(-c2cc3c(N4CCC(C)(c5nc(C)c(-c6ccc(OC)c(F)c6)[nH]5)CC4)ncnc3[nH]2)cn1` [P-3220, 5-[4-[4-[5-(3-fluoro-4-methoxy-phenyl)-4-methyl-1H-imidazol-2-yl]-4-methyl-1-piperidyl]-7H-pyrrolo[2,3-d]pyrimidin-6-yl]-N-methyl-pyridine-2-carboxamide], for which the IC50 was in the range of 0.0001 to 1 µM.

`COc1cccc(-c2[nH]c(C3(C)CCN(c4ncnc5[nH]c(-c6ccc(OCC(=O)O)cc6)cc45)CC3)nc2C)c1` [P-3221, 2-[4-[4-[4-[5-(3-methoxyphenyl)-4-methyl-1H-imidazol-2-yl]-4-methyl-1-piperidyl]-7H-pyrrolo[2,3-d]pyrimidin-6-yl]phenoxy]acetic acid]: the concentration for half-maximal inhibition (IC50) lay within 0.0001 to 1 µM.

For `CNC(=O)c1ccc(-c2cc3c(N4CCC(C)(c5nc(C)c(-c6cccc(OC)c6)[nH]5)CC4)ncnc3[nH]2)cn1` [P-3222, 5-[4-[4-[5-(3-methoxyphenyl)-4-methyl-1H-imidazol-2-yl]-4-methyl-1-piperidyl]-7H-pyrrolo[2,3-d]pyrimidin-6-yl]-N-methyl-pyridine-2-carboxamide], the IC50 was in the range of 0.0001 to 1 µM.

In turn, `COc1cccc(-c2[nH]c(C3(C)CCN(c4ncnc5[nH]c(-c6ccc(N7CCOCC7)nc6)cc45)CC3)nc2C)c1` [P-3223, 4-[5-[4-[4-[5-(3-methoxyphenyl)-4-methyl-1H-imidazol-2-yl]-4-methyl-1-piperidyl]-7H-pyrrolo[2,3-d]pyrimidin-6-yl]-2-pyridyl]morpholine] registered an IC50 of 0.0001 to 1 µM.

`CCOc1ccc(-c2[nH]c(C3(C)CCN(c4ncnc5[nH]c(-c6ccc(OCC(=O)O)cc6)cc45)CC3)nc2C)cc1` [P-3224, 2-[4-[4-[4-[5-(4-ethoxyphenyl)-4-methyl-1H-imidazol-2-yl]-4-methyl-1-piperidyl]-7H-pyrrolo[2,3-d]pyrimidin-6-yl]phenoxy]acetic acid]: the IC50 was in the range of 0.0001 to 1 µM.
